Consider 1 cell line from the supplement of paper PMC10307832.

Common to all, as to experiment: relative viability (nuclei count vs DMSO), 5 days (fraction); higher = more cells survive
Compound in test [1]: COc1cc2nccc(Oc3ccc(NC(=O)C4(C(=O)Nc5ccc(F)cc5)CC4)cc3)c2cc1OC [Cabozantinib] + C[C@]1(O)C[C@@H](c2nc(-c3ccc4ccc(-c5ccccc5)nc4c3)c3c(N)nccn32)C1 [Linsitinib] (partner 1 µM)
The gist of the method:
(§1)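 Relative viability is defined as nuclei in treated wells over nuclei in vehicle wells. Duplicate plates were run and medians reported. Lung cancer cell lines in 1536-well plates were dosed by pin tool one day after seeding, with one drug or with a fixed anchor-drug dose plus five library-drug doses (not always all listed) in √10 steps, and nuclei were counted after 5 days.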

Compound in test [2]: O[C@@H](COc1cccc2ncccc12)CN1CCN([C@@H]2c3ccccc3[C@@H]3[C@H](c4ccccc42)C3(F)F)CC1 [Zosuquidar] + O=C(CCCCCCC(=O)Nc1ccccc1)NO [Vorinostat] (partner 1 µM)
The gist of the method:
as §1

Compound in test [3]: COc1cc2nccc(Oc3ccc(NC(=O)C4(C(=O)Nc5ccc(F)cc5)CC4)cc3)c2cc1OC [Cabozantinib] + Cc1cc(Nc2cc(N3CCN(C)CC3)nc(Sc3ccc(NC(=O)C4CC4)cc3)n2)n[nH]1 [Tozasertib] (partner 0.1 µM)
The gist of the method: as §1

Compound in test [4]: COc1cc2nccc(Oc3ccc(NC(=O)C4(C(=O)Nc5ccc(F)cc5)CC4)cc3)c2cc1OC [Cabozantinib] + N=C(N)NC(=N)NCCc1ccccc1 [Phenformin] (partner 250 µM)
The gist of the method:
as §1

Take UMC-11: the relative viability in test [1] (first compound 0.02 µM) was 1.12; in test [1] (first compound 0.06325 µM) it was 1.04; in test [1] (first compound 0.2 µM) it was 1.03; in test [1] (first compound 0.6325 µM), 0.98; in test [1] (first compound 2 µM) it was 1.05; in test [2] (first compound 0.01 µM), 0.381. Also, the relative viability in test [2] (first compound 0.03162 µM) worked out at 0.483; in test [2] (first compound 0.1 µM) it was 0.505; in test [2] (first compound 0.3162 µM), 0.432; in test [2] (first compound 1 µM), 0.387; in test [3] (first compound 0.02 µM) it was 0.192; in test [3] (first compound 0.06325 µM), 0.2. The relative viability is 0.203 in test [3] (first compound 0.2 µM); 0.204 in test [3] (first compound 0.6325 µM); 0.202 in test [3] (first compound 2 µM); 0.309 in test [4] (first compound 0.02 µM); 0.35 in test [4] (first compound 0.06325 µM); 0.335 in test [4] (first compound 0.2 µM). Further, the relative viability is 0.32 in test [4] (first compound 0.6325 µM) and 0.331 in test [4] (first compound 2 µM).
